According to PMC5126668 (PeerJ, 2016):
Where “and” joins values, the source holds several entries; their conditions need not be identical. Equal entries are not always repeated. Where two headings read alike, the source gives them in different places. Values belong to the compound of their own block, whether it stands above or below them.

Tests used:
[1] = HK-2 cell viability, MTT assay, with or without co-cultured HLMs; assay type: cell-based, human; settings: human; for viability at 4 h, 30 µM: BAK 30 µM; for viability at 4 h, 75 µM: BAK 75 µM; for viability at 4 h, 90 µM: BAK 90 µM; for viability at 4 h, 45 µM: BAK 45 µM; for viability at 4 h, 60 µM: BAK 60 µM
Procedure: HK-2 cells obtained from Peking Union Medical College were maintained in D/F12 medium containing 10% fetal bovine serum, 2 mM glutamine and 1 × 10^5 U/L penicillin and streptomycin at 37 °C in a 5% CO2 atmosphere. […] The samples containing HLMs were prepared in an ice bath, and three replicates were tested for each dose. In brief, HK-2 cells (100 µL) were seeded at 3 × 10^5cells/mL in 96-well plates. After 12 h, 200 µL of the test compound was added. For the BAK and GA with HLMs group, GA was pre-incubated with NADPH in HLMs for 30 min at 37 °C and then mixed with BAK; for the other groups, all tested compounds except NADPH were mixed, and NADPH was then added to start the metabolic reaction. After 4 h of culture, 100 µL of 0.5 g/L MTT was added, and the cells were cultured for 4 h. Subsequently, 150 µL of 4% isopropanol was added to cells for 15 min at 37 °C, and the absorbance at 570 nm was then read by a microplate reader (Multiskan MK3, Thermo, USA). The relative cell viability (%) was calculated as follows: Mean Absorbance of Sample/Mean Absorbance of Vehicle Control × 100%.

[2] = BAK exposure in rat liver and kidney 24 h after dosing; assay type: in vivo, Sprague–Dawley rats; settings: for concentration at 24 h: Sprague-Dawley, po, 200 mg/kg
Procedure: The liver and kidney tissue were also collected from individual rats 24 h after dosing, weighed and then homogenized in saline solution (0.6 g wet weight/mL) on ice. Subsequently, 10 µL of internal standard solution (tanshinone II A, 10 µg/mL) and 0.3 mL of acetonitrile were added to 0.1 mL of plasma or homogenates, and centrifuged at 13,300 rpm for 15 min after 2 min of vortexing. The supernatant was reconstituted in 100 µL of mobile phase after drying under 40 °C nitrogen, the mixture then was vortexed for 5 min and centrifuged at 13,300 rpm for 15 min. Finally, 20 µL of supernatant was injected for HPLC analysis. […] The mobile phase consisted of methanol and water with 0.1% formic acid (89:11, v/v) and was supplied at a flow rate of 0.8 mL/min. The detection wavelength was set to 262 nm. […] The recovery was >93%.

CYP2C19 = biological target: T1, CYP2C19 (Homo sapiens, UniProt P33261); assay: Inhibition of CYP activities by GA in HLMs (mephenytoin); assay type: biochemical
T1 construct: was investigated in HLMs; tissue iPhase Pharmaceutical Services (Beijing, China) Lot # 7MMC011; host or cells: pooled human liver microsomes
T1 sequence (P33261 whole entry): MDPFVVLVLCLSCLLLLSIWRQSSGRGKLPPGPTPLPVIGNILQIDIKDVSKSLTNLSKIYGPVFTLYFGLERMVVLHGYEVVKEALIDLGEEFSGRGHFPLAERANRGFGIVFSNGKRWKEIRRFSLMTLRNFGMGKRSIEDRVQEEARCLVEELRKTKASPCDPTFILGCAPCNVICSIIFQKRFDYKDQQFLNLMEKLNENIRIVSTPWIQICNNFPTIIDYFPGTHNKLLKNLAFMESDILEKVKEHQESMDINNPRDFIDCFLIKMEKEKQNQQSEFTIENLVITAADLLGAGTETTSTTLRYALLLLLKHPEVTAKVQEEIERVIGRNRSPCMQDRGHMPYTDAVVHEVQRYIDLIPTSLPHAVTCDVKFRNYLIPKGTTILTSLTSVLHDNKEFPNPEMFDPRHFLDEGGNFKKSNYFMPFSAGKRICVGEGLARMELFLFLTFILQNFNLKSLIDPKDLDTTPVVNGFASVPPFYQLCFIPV
Procedure: (§1) The samples containing HLMs were prepared in an ice bath, and three replicates of each dose were tested.
(§2) The reaction system consisted of 0.5 g/L HLMs, 1 mM NADPH, 25 µM phenacetin (CYP1A2 substrate), 25 µM tolbutamide (CYP2C9 substrate), 25 µM mephenytoin (CYP2C19 substrate), 10 µM dextromethorphan (CYP2D6 substrate) and 10 µM midazolam (CYP3A4 substrate). After incubation at 37 °C for 30 min, 200 µL of methanol containing 100 µg/L propranolol hydrochloride was added to terminate the reaction. The samples were then treated, and the corresponding substrate metabolites of CYP isoforms were detected according to a previously described method ([Shen et al., 2013]).

CYP1A2 = biological target: T2, CYP1A2 (Homo sapiens, UniProt P05177); assay: Inhibition of CYP activities by GA in HLMs (phenacetin); assay type: biochemical
T2 construct: tissue iPhase Pharmaceutical Services (Beijing, China) Lot # 7MMC011; host or cells: pooled human liver microsomes
T2 sequence (P05177 1-516): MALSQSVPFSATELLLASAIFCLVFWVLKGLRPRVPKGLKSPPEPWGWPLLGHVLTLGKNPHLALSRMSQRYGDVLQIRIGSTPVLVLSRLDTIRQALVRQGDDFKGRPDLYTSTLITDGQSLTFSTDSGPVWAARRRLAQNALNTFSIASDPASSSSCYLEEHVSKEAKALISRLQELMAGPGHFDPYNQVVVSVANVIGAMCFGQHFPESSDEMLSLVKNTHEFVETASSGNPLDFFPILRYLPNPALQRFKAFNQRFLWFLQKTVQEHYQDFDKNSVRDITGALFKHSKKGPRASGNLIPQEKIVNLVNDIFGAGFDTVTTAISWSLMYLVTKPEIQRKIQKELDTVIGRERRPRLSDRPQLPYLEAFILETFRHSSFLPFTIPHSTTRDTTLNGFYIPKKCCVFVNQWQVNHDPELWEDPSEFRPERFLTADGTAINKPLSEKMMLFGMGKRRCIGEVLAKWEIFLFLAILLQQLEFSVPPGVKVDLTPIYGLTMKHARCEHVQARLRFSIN
Procedure: as §1, §2

CYP2C9 = biological target: T3, CYP2C9 (Homo sapiens, UniProt P11712); assay: Inhibition of CYP activities by GA in HLMs (tolbutamide); assay type: biochemical
T3 construct: tissue iPhase Pharmaceutical Services (Beijing, China) Lot # 7MMC011; host or cells: pooled human liver microsomes
T3 sequence (P11712 whole entry): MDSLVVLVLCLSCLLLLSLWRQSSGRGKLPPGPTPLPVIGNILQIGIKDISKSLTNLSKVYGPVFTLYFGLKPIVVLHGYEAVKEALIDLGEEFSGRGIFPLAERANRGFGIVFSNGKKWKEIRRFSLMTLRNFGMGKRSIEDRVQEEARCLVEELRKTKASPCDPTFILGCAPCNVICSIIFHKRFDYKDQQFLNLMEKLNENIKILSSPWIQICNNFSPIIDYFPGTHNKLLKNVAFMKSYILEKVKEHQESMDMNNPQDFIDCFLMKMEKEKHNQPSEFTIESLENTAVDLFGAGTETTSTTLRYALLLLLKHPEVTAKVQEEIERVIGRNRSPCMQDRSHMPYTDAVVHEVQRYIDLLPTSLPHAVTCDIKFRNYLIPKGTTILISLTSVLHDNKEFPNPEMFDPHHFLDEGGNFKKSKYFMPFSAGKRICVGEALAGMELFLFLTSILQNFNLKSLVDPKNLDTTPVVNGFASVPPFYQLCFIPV
Procedure: as §1, §2

[3] = with HLM, raw data, read-out: cell viability(%), single values
[4] = HK-2 cells co-cultured with HLMs (0.16 g/L), with HLMs 0.16 g/L, 4 h, mean, read-out: HK-2 Cell viability (%)
[5] = HK-2 cells, without HLMs, without HLMs, 4 h, mean, read-out: HK-2 Cell viability (%)

BAK in kidney relative to liver ([2]; 24 h after administration): 1.37- to 1.54 fold
concentration at 24 h ([2]; kidney, 24 h after single oral dose, read-out: Exposure of BAK, Kidney, mean): 755 ng/g
concentration at 24 h ([2]; kidney, 24 h after single oral dose, read-out: Exposure of BAK, Kidney, single rats): 661 ng/g
concentration at 24 h ([2]; liver, 24 h after single oral dose, read-out: Exposure of BAK, Liver, mean): 548 ng/g
concentration at 24 h ([2]; liver, 24 h after single oral dose, read-out: Exposure of BAK, Liver, single rats): 531 ng/g
Structure (SMILES): C=C[C@@](C)(/C=C/c1ccc(O)cc1)CCC=C(C)C [BAK, Bakuchiol]
viability at 4 h, 30 µM [1, 3]: 98.8%
viability at 4 h, 75 µM [1, 3]: 108%
viability at 4 h, 90 µM [1, 3]: 88.2%
viability at 4 h, 30 µM [1, 4]: 104 ± 4.32%
viability at 4 h, 45 µM ([1]; HK-2 cells co-cultured with HLMs (0.16 g/L), with HLMs 0.16 g/L, 4 h, mean): 105 ± 9.39%
viability at 4 h, 60 µM [1, 4]: 101 ± 9.76%
viability at 4 h, 75 µM [1, 4]: 109 ± 3.19%
viability at 4 h, 90 µM [1, 4]: 92.5 ± 2.07%
viability at 4 h, 60 µM ([1]; HK-2 cells, without HLM, raw data, read-out: cell viability(%), single values): 80.5%
viability at 4 h, 30 µM [1, 5]: 97.7 ± 10.7%
viability at 4 h, 45 µM ([1]; HK-2 cells, without HLMs, 4 h, mean): 84.6 ± 13.8%
viability at 4 h, 60 µM [1, 5]: 77.5 ± 4.69%
viability at 4 h, 75 µM [1, 5]: 55 ± 11.3%
viability at 4 h, 90 µM [1, 5]: 46.3 ± 12.5%
Exposure of BAK, Kidney, single rats ([2]; 24 h after single oral dose): 0.7466 µg/g and 0.7844 µg/g and 0.7813 µg/g and 0.8035 µg/g
Exposure of BAK, Liver, single rats ([2]; 24 h after single oral dose): 0.5617 µg/g and 0.5502 µg/g and 0.5630 µg/g and 0.5314 µg/g

IC50 (CYP2C19; HLMs, 30 min pre-incubation with NADPH, mephenytoin 25 µM): 175.2 ± 1.26 µM
activity at 30 min, 0.1 µM (CYP2C19; human, human liver microsomes, probe mephenytoin (25 µM), CYP2C19-30min, GA 0.1000, vs control, read-out: Relative activity (%)): 117%
activity at 30 min, 1 µM (CYP2C19; human, human liver microsomes, probe mephenytoin (25 µM), CYP2C19-30min, GA 1.0000, vs control, read-out: Relative activity (%)): 105%
activity at 30 min, 6.25 µM (CYP2C19; human, human liver microsomes, probe mephenytoin (25 µM), CYP2C19-30min, GA 6.2500, vs control, read-out: Relative activity (%)): 88%
activity at 30 min, 31.25 µM (CYP2C19; human, human liver microsomes, probe mephenytoin (25 µM), CYP2C19-30min, GA 31.2500, vs control, read-out: Relative activity (%)): 80%
activity at 30 min, 100 µM (CYP2C19; human, human liver microsomes, probe mephenytoin (25 µM), CYP2C19-30min, GA 100.0000, vs control, read-out: Relative activity (%)): 72.5%
activity at 30 min, 156.25 µM (CYP2C19; human, human liver microsomes, probe mephenytoin (25 µM), CYP2C19-30min, GA 156.2500, vs control, read-out: Relative activity (%)): 57.9%
activity at 30 min, 312.5 µM (CYP2C19; human, human liver microsomes, probe mephenytoin (25 µM), CYP2C19-30min, GA 312.5000, vs control, read-out: Relative activity (%)): 0%
activity at 30 min, […] (CYP2C19; human, human liver microsomes, probe mephenytoin (25 µM), read-out: Relative activity (%)): 36.8%
IC50 (CYP1A2; HLMs, 30 min pre-incubation with NADPH, phenacetin 25 µM): 61.1 ± 1.13 µM
activity at 30 min, 156.25 µM (CYP1A2; human, human liver microsomes (HLMs), probe phenacetin 25 µM, CYP1A2-30min, GA 156.2500, vs control, read-out: Relative activity (%)): 18.2%
activity at 30 min, 312.5 µM (CYP1A2; human, human liver microsomes, probe phenacetin 25 µM, CYP1A2-30min, GA 312.5000, vs control, read-out: Relative activity (%)): 14.1%
activity at 30 min, 1000 µM (CYP1A2; human, human liver microsomes, probe phenacetin 25 µM, CYP1A2-30min, GA 1000.0000, vs control, read-out: Relative activity (%)): 5.73%
activity at 30 min, […] (CYP1A2; human, human liver microsomes, probe phenacetin 25 µM, read-out: Relative activity (%)): 10.3%
activity at 30 min, 0.1 µM (CYP1A2; human, human liver microsomes, probe phenacetin (25 µM), CYP1A2-30min, GA 0.1000, vs control, read-out: Relative activity (%)): 95%
activity at 30 min, 1 µM (CYP1A2; human, human liver microsomes, probe phenacetin (25 µM), CYP1A2-30min, GA 1.0000, vs control, read-out: Relative activity (%)): 84.3%
activity at 30 min, 6.25 µM (CYP1A2; human, human liver microsomes, probe phenacetin (25 µM), CYP1A2-30min, GA 6.2500, vs control, read-out: Relative activity (%)): 89.2%
activity at 30 min, 31.25 µM (CYP1A2; human, human liver microsomes, probe phenacetin (25 µM), CYP1A2-30min, GA 31.2500, vs control, read-out: Relative activity (%)): 70.9%
activity at 30 min, 100 µM (CYP1A2; human, human liver microsomes, probe phenacetin (25 µM), CYP1A2-30min, GA 100.0000, vs control, read-out: Relative activity (%)): 31%
IC50 (CYP2C9; HLMs, 30 min pre-incubation with NADPH, tolbutamide 25 µM): 26.5 ± 3.08 µM
activity at 30 min, 0.1 µM (CYP2C9; human, human liver microsomes, probe tolbutamide 25 µM, CYP2C9-30min, GA 0.1000, vs control, read-out: Relative activity (%)): 114%
activity at 30 min, 1 µM (CYP2C9; human, human liver microsomes, probe tolbutamide 25 µM, CYP2C9-30min, GA 1.0000, vs control, read-out: Relative activity (%)): 81%
activity at 30 min, 6.25 µM (CYP2C9; human, human liver microsomes, probe tolbutamide 25 µM, CYP2C9-30min, GA 6.2500, vs control, read-out: Relative activity (%)): 76.2%
activity at 30 min, 31.25 µM (CYP2C9; human, human liver microsomes, probe tolbutamide 25 µM, CYP2C9-30min, GA 31.2500, vs control, read-out: Relative activity (%)): 56.1%
activity at 30 min, 100 µM (CYP2C9; human, human liver microsomes, probe tolbutamide 25 µM, CYP2C9-30min, GA 100.0000, vs control, read-out: Relative activity (%)): 48.9%
activity at 30 min, 156.25 µM (CYP2C9; human, human liver microsomes, probe tolbutamide 25 µM, CYP2C9-30min, GA 156.2500, vs control, read-out: Relative activity (%)): 46.2%
activity at 30 min, 312.5 µM (CYP2C9; human, human liver microsomes, probe tolbutamide 25 µM, CYP2C9-30min, GA 312.5000, vs control, read-out: Relative activity (%)): 18.1%
activity at 30 min, […] (CYP2C9; human, human liver microsomes, probe tolbutamide 25 µM, read-out: Relative activity (%)): 35.9%
activity at 30 min, 1000 µM (CYP2C9; human, human liver microsomes, probe tolbutamide (25 µM), CYP2C9-30min, GA 1000.0000, vs control, read-out: Relative activity (%)): 14.9%
Structure (SMILES): CC1(C)[C@@H](O)CC[C@]2(C)[C@H]3C(=O)C=C4[C@@H]5C[C@@](C)(C(=O)O)CC[C@]5(C)CC[C@@]4(C)[C@]3(C)CC[C@@H]12 [GA, Glycyrrhetinic acid]
